Measured values from PMC3204379 (Journal of molecular biology, 2011).

Target: PtpA (Staphylococcus aureus, UniProt P0C5D2)
Experiment: phosphatase activity
Type: biochemical
Settings: artificial substrate; conditions not given

Chain of PtpA (P0C5D2 whole entry): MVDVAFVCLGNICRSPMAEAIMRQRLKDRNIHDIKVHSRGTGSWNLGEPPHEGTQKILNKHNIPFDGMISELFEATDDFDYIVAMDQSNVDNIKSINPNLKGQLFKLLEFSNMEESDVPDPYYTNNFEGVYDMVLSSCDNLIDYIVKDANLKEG

SMILES: O=[N+]([O-])c1ccc(OP(=O)(O)O)cc1 [para-nitrophenol phosphate]
- phosphatase activity (data not shown): activity of PtpA with the artificial phosphatase substrate para-nitrophenol phosphate
